Consider 2 compounds from patent publication US20030203975A1, “Anti-cancer agents” (priority 1998, published 2003).

pIC50: −log10 of the molar value.

What is called pIC50 is the IC50 on a negative log10 scale, so that one unit is a factor of ten. What is called IC50 is the point on the concentration scale where inhibition reaches its midpoint.

Series [1] deals with T1, Topoisomerase I (Homo sapiens, UniProt P11387).
T1 sequence (P11387 1-765): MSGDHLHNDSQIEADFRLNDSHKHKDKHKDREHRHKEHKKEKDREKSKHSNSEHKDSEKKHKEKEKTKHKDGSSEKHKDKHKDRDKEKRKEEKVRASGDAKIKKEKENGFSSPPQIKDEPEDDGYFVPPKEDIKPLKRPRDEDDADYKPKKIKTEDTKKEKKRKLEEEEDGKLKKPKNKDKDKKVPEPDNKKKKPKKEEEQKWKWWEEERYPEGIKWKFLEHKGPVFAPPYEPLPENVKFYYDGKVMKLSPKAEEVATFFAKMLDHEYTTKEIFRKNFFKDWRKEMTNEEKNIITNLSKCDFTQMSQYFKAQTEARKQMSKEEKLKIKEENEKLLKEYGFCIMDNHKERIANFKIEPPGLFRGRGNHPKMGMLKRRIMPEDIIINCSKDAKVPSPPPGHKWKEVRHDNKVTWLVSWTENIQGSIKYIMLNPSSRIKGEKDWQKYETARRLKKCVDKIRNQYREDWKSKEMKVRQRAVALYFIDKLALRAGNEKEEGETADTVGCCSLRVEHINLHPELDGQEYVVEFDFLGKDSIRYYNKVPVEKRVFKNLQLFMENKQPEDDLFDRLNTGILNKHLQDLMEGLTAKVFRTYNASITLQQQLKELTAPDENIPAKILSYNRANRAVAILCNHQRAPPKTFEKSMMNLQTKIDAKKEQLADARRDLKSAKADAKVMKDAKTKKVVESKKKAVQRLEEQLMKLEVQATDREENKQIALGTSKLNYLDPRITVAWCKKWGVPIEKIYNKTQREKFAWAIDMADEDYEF
The series can be described thus: Topo I relaxation assay. The format is biochemical. The conditions noted are these: unit not given; compound at 1, 10, 25 and 50 μM in protocol. The source says:
Topo I Relaxation Assay Protocol.

Series [2] has as its system MAC 15A adenocarcinoma of the colon. The series can be described thus: In vitro chemosensitivity against MAC 15A adenocarcinoma (MTT assay). The conditions noted are these: Mus musculus, MAC15A, 96 hours continuous exposure. The format is cell-based. (Tetrazolium dyes change colour on reduction, which living cells bring about.)
Series [3] can be described thus: In vitro cytotoxicity against CHO cell lines (MTT assay). The conditions noted are these: Chinese hamster, MTT assay after 24 hours exposure. It counts as cell-based. As for the experimental part:
Chinese Hamster Ovary (CHO) cell lines were grown as monolayers in Ham's F-10 nutrient mixture supplemented with 5% foetal calf serum and 5% heat-inactivated newborn calf serum. All experiments were performed on cells within 10 passages of each other, during which period phenotypes remained stable. All anthraquinone/amino acid conjugates were dissolved in water and not more than 0.01% DMSO. Activity was determined by an MTT assay after 24 hours exposure using essentially the method of Plumb et al (Plumb, J., Milroy, R and Kaye, S. B., 1989, Effects of the pH dependence of 3-([…])-2,5-diphenyl tetrazolium bromide formazan absorption on chemosensitivity, Cancer Research, 49: 4435-4440). Characteristics of the cell lines are described in full in Cummings et al 1996, Biochem.Pharmacol. 52: 979-990.

For series [4], the target named is T2, Topoisomerase IIβ (Homo sapiens, UniProt Q02880). The series can be described thus: Topo II decatenation assay. The conditions noted are these: unit not given; kDNA substrate; compound at 1, 10, 25 and 50 μM in protocol. The format is biochemical. How it is done: (§1) Topisomerase Decatenation Assay.
(§2) This method uses catenated DNA substrate prepared from the kinetoplast of the insect trypanosome Crithidia fasciculata. Upon incubation with topo II, which engages DNA in a double stranded breakage-reunion cycle, DNA minicircles are released. Addition of topo-inhibiting drugs may prevent decatenation.
(§3) Topo II Decatenation Assay Protocol
(§4) This assay is the same as the Topo II Relaxation assay except that the pBR 322 Plasmid DNA is replaced with kDNA.
(§5) Results are included in Table 3 below

Series [5] has as its target T3, Topoisomerase IIα (Homo sapiens, UniProt P11388). The series can be described thus: Topo II decatenation assay. It counts as biochemical. Also on record: key: ‘—’ = Not active. The conditions noted are these: unit not given; kDNA substrate; compound at 1, 10, 25 and 50 μM in protocol. How it is done:
as §1, §2, §3, §4, §5

The target of series [6] is T1, Topoisomerase I. The series can be described thus: Topo I cleavage assay. The conditions noted are these: for TopI Cleave: unit not given, compound at 1, 10, 25 and 50 μM in protocol. It counts as biochemical.
For series [7], the target named is T2, Topoisomerase IIβ. Briefly: Topo II relaxation assay. The format is biochemical. Also on record: key: ‘—’ = Not active. The conditions noted are these: unit not given; compound at 1, 10, 25 and 50 μM in protocol. How it is done:
(§6) Topo II Relaxation Assay Protocol
(§7) 10×Topo II Relaxation Buffer
(§8) 500 mM Tris-HCl (pH 7.5); 100 mM mgCI2; 50 mM EDTA; 300 mg/mI BSA; 10 mM DTT; −20° C.

In series [8] the target is T3, Topoisomerase IIα. Briefly: Topo II relaxation assay. Also on record: key: ‘—’ = Not active. As to conditions: unit not given; compound at 1, 10, 25 and 50 μM in protocol. The format is biochemical. How it is done:
as §6, §7, §8

T3 sequence (P11388 whole entry): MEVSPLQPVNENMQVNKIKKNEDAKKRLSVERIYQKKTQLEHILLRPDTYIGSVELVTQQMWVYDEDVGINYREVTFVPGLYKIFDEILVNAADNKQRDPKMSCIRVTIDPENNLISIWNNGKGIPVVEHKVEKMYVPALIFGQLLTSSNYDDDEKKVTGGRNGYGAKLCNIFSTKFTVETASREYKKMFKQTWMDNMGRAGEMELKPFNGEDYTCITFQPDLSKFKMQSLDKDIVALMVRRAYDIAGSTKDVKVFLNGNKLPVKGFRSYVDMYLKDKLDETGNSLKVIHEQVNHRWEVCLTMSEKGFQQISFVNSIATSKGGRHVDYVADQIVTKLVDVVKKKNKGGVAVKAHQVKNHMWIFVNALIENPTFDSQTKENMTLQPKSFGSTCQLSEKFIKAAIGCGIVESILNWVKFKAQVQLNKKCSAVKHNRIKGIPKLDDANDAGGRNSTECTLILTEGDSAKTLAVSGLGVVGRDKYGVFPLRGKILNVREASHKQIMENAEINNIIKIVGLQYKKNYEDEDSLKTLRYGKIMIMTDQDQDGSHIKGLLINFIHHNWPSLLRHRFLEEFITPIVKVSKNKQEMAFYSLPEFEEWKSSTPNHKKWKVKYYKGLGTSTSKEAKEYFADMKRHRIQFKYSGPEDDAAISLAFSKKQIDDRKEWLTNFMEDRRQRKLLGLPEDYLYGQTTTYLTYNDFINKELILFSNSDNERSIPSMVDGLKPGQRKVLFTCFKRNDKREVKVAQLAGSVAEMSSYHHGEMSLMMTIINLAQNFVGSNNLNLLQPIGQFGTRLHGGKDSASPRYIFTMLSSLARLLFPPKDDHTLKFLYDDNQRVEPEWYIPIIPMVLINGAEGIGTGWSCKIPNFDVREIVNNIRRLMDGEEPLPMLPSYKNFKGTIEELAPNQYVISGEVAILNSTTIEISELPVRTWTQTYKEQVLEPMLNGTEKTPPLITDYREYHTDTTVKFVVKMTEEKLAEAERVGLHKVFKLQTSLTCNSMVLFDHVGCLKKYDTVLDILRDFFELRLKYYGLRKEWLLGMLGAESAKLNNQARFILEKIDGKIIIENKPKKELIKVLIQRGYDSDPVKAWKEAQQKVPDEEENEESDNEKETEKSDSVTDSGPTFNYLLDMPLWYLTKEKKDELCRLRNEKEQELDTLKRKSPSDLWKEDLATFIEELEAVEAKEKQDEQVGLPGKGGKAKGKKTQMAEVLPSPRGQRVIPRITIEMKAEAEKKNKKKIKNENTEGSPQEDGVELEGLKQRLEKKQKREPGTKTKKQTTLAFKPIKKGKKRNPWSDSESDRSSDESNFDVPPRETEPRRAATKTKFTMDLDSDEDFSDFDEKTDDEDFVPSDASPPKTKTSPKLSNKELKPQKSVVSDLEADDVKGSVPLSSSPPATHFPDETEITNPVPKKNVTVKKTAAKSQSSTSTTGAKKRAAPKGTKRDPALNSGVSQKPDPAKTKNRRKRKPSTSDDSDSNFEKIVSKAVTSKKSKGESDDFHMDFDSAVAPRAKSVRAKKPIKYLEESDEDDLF
T2 sequence (Q02880 whole entry): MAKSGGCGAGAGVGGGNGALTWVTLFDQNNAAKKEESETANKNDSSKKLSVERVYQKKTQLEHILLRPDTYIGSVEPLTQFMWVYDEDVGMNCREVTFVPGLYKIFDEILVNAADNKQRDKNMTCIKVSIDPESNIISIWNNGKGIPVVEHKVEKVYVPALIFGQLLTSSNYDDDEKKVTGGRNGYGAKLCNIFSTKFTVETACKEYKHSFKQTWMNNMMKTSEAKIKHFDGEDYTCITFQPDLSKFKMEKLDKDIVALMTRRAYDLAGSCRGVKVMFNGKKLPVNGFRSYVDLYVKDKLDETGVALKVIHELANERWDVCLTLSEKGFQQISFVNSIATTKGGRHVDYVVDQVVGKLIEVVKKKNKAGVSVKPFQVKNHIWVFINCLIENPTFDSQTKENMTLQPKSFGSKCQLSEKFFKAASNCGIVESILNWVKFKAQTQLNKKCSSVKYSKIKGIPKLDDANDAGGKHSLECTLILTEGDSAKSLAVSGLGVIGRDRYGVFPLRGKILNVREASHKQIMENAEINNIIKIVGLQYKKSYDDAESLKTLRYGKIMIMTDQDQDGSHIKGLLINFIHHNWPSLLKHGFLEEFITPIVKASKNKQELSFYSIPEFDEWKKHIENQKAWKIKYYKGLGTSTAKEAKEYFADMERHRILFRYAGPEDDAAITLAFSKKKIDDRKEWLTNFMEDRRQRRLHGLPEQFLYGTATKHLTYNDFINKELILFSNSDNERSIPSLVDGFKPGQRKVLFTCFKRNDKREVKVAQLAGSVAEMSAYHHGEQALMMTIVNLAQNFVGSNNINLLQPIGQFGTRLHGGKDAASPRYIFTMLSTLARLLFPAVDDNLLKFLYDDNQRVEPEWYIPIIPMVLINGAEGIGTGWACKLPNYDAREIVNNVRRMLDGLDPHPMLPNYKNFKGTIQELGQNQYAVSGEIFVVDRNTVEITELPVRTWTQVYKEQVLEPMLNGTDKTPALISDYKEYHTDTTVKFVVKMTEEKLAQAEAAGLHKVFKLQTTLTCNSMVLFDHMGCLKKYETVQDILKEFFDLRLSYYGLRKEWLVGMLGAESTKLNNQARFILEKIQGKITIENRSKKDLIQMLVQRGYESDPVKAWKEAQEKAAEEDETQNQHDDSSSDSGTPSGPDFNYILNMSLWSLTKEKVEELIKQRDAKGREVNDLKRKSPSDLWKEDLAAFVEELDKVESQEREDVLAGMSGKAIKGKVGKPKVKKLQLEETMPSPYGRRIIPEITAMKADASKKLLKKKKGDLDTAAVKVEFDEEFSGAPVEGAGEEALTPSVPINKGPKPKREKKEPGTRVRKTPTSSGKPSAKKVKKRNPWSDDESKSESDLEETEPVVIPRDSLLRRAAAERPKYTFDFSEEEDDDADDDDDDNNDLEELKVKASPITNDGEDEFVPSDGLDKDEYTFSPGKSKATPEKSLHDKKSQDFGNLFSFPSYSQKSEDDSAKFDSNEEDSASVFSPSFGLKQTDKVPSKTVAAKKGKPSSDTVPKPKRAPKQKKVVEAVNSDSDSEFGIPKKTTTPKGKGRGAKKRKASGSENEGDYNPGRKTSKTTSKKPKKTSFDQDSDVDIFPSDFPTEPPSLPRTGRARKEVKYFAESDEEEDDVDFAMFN

With `C[C@H](N)C(=O)OCCCCNc1cccc2c1C(=O)c1ccccc1C2=O.O=C(O)C(F)(F)F` [Example 43, 1-[4-(L-alanyloxy)butylamino]anthracene-9,10-dione trifluoroacetate], the “TopI Relax.” value at Topoisomerase I [1] was found to be 25. The same compound showed a pIC50 in series [2] of 5.59. The IC50 at 24 h was found to be 6.6 µM in series [3] (CHO-ADR-1 cells, ADR line); 25.2 µM in series [3] (CHO-ADR-r cells, ADR line); 54 µM in series [3] (CHO-K1 cells). In addition, the “TopIIβ Decat.” value on Topoisomerase IIβ [4] was determined as 25. At Topoisomerase IIα [5], the “TopIIα Decat.” value was “—”. Moreover, the “nicked DNA” value at Topoisomerase I [6] (at 100 μM) came out at 20%. Also, on Topoisomerase I [6], the “TopI Cleave” value is 100. Also, the “TopIIβ Relax.” value on Topoisomerase IIβ [7] was found to be 15. Moreover, the “TopIIα Relax.” value at Topoisomerase IIα [8] is listed as “—”.

Take `C[C@@H](N)C(=O)OCCCCNc1cccc2c1C(=O)c1ccccc1C2=O.O=C(O)C(F)(F)F` [Example 45, 1-[4-(D-alanyloxy)butylamino]anthracene-9,10-dione trifluoroacetate]: the “TopI Relax.” value on Topoisomerase I [1] was determined as 25. Also, the pIC50 in series [2] is 5.54. The IC50 at 24 h was 46.3 µM in series [3] (CHO-ADR-1 cells, ADR line); 31.5 µM in series [3] (CHO-ADR-r cells, ADR line); 40.5 µM in series [3] (CHO-K1 cells). On Topoisomerase IIβ [4], the “TopIIβ Decat.” value stood at 20. Besides, on Topoisomerase IIα [5], the “TopIIα Decat.” value is “—”. Besides, the “TopI Cleave” value on Topoisomerase I [6] was 300. On Topoisomerase IIβ [7], the “TopIIβ Relax.” value was determined as 25. Besides, the “TopIIα Relax.” value at Topoisomerase IIα [8] is reported as “—”.
